Where two headings read alike, the source gives them in different places.
Assays:
[1] = target: PfPKG T618Q (Plasmodium falciparum, UniProt Q8I719, T618Q); test: PfPKG enzyme activity assay, T618Q gatekeeper mutant; assay type: biochemical, P. falciparum
Description: (§1) Direct inhibition of recombinant PfPKG phosphorylation activity was carried out using a previously described nonradioactive assay. The assay evaluates PfPKG activity based on changes in initial ATP concentration via luminescence after enzyme phosphorylation of peptide substrate PKCtide ([…]) (SignalChem, Richmond, BC Canada). Enzyme kinase activity was measured in the presence of 26 μM PKCtide; 50.1 nM PfPKG; and 20 μM cGMP in a buffered solution containing 20 mM β-glycerol-phosphate, 20 mM MgCl2, 25 mM HEPES pH 7.5 (KOH), 0.1% BSA and 2 mM DTT. The reaction was activated by the addition of 10 μM ATP with incubation at 30 °C and 90 rpm agitation for 120 min. […] Each assay plate contained reaction wells with no enzyme, no PKCtide peptide substrate and no cGMP as internal controls.

[2] = test system: P. falciparum T618Q asexual stage parasites; test: Growth inhibition assay, asexual stage parasites expressing PfPKG T618Q; assay type: cell-based; conditions: Plasmodium falciparum, 72 h, read-out: P. falciparum EC50 (±SD) T618Q
Description: (§2) lines were maintained with O+ human erythrocytes (BioIVT). WT 3D7A10 and T618Q parasites were kind gifts from Dr. David Fidock (Columbia University) and Dr. David Baker (London School of Tropical Medicine and Hygiene), respectively. Growth inhibition assays were performed as previously described. Parasites were grown in RPMI 1640 medium (Sigma-Aldrich, St. Louis, MO, U.S.A.) supplemented with 5 mg/mL Albumax (Gibco), 50 μg/mL hypoxanthine (Sigma-Aldrich), 2 mg/mL Na2CO3 (Sigma-Aldrich), 25 mM HEPES, and 50 μg/mL gentamicin (Gibco). The growth assay was initiated with cultures with >80% ring stage parasites, diluted to a parasitemia of 0.4% and a hematocrit of 1%. Parasites were transferred to a 96-well plate with test compounds, vehicle, or DHA as positive control, and maintained for 72 h in 5% CO2, 5% O2, and 90% N2 in a humidified chamber. Parasite viability at 72 h was determined by addition of SYBR Green I nucleic acid stain (Thermo Fisher Scientific, S7563) and Mitotracker Deep Red (Fisher M422426) followed by flow cytometry on a BD FACSVerse using BD FACSuite software. Data acquired were analyzed using Flowjo software. EC50 values were derived by nonlinear regression in Graph Pad Prism 7.

[3] = test system: T. gondii RH strain expressing β-galactosidase, parental; test: Proliferation EC50, β-galactosidase readout, parental strain; assay type: cell-based; conditions: Toxoplasma gondii, 72 h, read-out: T. gondii EC50 (±SD) CONTROL
[4] = target: T1, PfPKG (Plasmodium falciparum, UniProt Q8I719); test: PfPKG enzyme activity assay, recombinant WT; assay type: biochemical
Description: as §1

[5] = target: T2, CpCDPK1-G152M (Cryptosporidium parvum, UniProt A3FQ16, G152M); test: CDPK enzyme activity assay, CpCDPK1 G152M; assay type: biochemical, C. parvum
T2 construct: made in house
Description: (§3) Recombinant expression of PfCDPK1, PfCDPK4, TgCDPK1 WT, TgCDPK1-G128M, CpCDPK1 and CpCDPK1-G152 M were purified as previously described. […] These reactions were performed in a buffer composed of 1 mM EGTA (pH 7.2), 10 mM MgCl2, 20 mM HEPES pH 7.5 (KOH), 0.1% BSA. The reactions were initiated with addition of 10 μM ATP and 2 mM CaCl2 as enzyme activation reagent. Reaction plates were incubated for 90 min with 90 rpm agitation at 30 °C. […] KinaseGlo (Promega) luminescence-based assay in which luminescence is inversely related to kinase activity and […] was used as previously described.

[6] = target: T3, TgCDPK1 WT (Toxoplasma gondii, UniProt Q9BJF5); test: biochemical
T3 sequence (Q9BJF5 1-507): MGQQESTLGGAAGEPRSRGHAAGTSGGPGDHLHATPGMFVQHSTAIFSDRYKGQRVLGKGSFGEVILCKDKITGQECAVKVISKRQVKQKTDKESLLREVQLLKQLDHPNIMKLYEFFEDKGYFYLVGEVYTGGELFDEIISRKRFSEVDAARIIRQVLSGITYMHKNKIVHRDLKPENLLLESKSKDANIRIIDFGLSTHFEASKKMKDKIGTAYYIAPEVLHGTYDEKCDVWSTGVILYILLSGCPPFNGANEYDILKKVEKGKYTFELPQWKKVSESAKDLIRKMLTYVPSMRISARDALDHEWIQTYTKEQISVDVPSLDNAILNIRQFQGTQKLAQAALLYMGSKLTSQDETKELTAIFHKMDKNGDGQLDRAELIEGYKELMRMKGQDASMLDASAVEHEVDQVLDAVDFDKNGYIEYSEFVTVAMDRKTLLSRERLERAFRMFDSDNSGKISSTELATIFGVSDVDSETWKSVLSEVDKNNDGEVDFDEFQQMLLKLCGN
Description: as §3

[7] = target: T4, CpCDPK1 (Cryptosporidium parvum, UniProt A3FQ16); test: CDPK enzyme activity assay, CpCDPK1 WT; assay type: biochemical, C. parvum; conditions: Kinase-Glo assay; mean ± SD, n = 2–3 experiments; read-out: CpCDPK1 IC50 (±SD) WT
T4 construct: made in house
Description: as §3

[8] = test system: T. gondii RH strain with L162Q substitution in TgMAPKL1; test: Proliferation EC50, β-galactosidase readout, TgMAPKL1 L162Q; assay type: cell-based
Description: (§4) Human Foreskin Fibroblasts (HFF) were cultured in DMEM, with D-glucose (4.5 g/L), L-glutamine, and sodium pyruvate (110 mg/L) (Gibco) that were further supplemented with 10% Fetal Clone 1 serum (FCS)(HyClone), 50 U/mL penicillin (Gibco), […] streptomycin (Gibco), and 1× GlutaMax (Gibco). HFF cells were cultured in T25 flasks (Corning) in a humidified incubator at 37 °C and 5% CO2. For culture, media was replaced with DMEM, as described above, with 1% FCS. Mutant strains were created as described in.
An RH strain of with an L162Q substitution in TgMAPKL1 introduced by CRISPR/Cas9 site directed mutagenesis into a clone expressing β-galactosidase was used to determine the EC50s for proliferation. Compounds were dissolved in DMSO and serially diluted 4-fold across the first 11 columns of a 96 well plate from the highest concentration of 25 μM leaving the final column with no drugs. was added to the first 11 columns of the 96 well plate at 4000 parasites per well. The last column contained no compound. Plates were incubated 72 h at 37 °C and 5% CO2. were quantified by spectrophotometrically measuring the β-galactosidase concentration of each well after cell lysis and exposure to chlorophenol red β-galactopyranose (Sigma-Aldrich, St. Louis, MO) substrate. Each compound was tested at least three times in quadruplicate.

[9] = target: T5, PfCDPK4 (Plasmodium falciparum, UniProt Q8IBS5); test: CDPK enzyme activity assay, PfCDPK4; assay type: biochemical, P. falciparum
T5 construct: made in house
Description: as §3

[10] = test system: T. gondii tachyzoites expressing TgCDPK1 G128M; TgMAPKL-1 L162Q; test: Proliferation EC50, host fibroblast nuclei count, double mutant; assay type: cell-based
Description: as §4
(§5) Presence of desired mutations in parasite lines, TgCDPK1^G128M, TgCDPK1^G128M + TgMAPKL1^L162Q and […] was verified through sequencing. Compounds were dissolved in DMSO and serially diluted 4-fold across the first 10 wells of a 96 well plate, with the highest drug concentration in the first column being 25 μM. The strain of was then added to the first 11 columns of the 96-well plate at a density of 4000 parasites per well. The 11th column contained no compounds, and the 12th column contained no parasites and no compound. After 5 days of incubation at 37 °C and 5% CO2, cells were washed with PBS and fixed with 4% PFA in PBS (Thermo Fisher Scientific, Waltham, MA, USA). After fixing, cells were washed three times with PBS and stained with 300 nM DAPI in PBS before being washed again three times with PBS.
(§6) Images were acquired in an ImageXpress Pico Automated Cell Imaging System (Molecular Devices, San Jose, CA, USA) with a 4× objective using UV fluorescence. Following imaging, ImageXpress software was used to count objects with a fluorescence intensity ≥8 and a size of 12–30 μm, giving a total count of host cell nuclei for each well. EC50 were determined based on the number of remaining fibroblast nuclei using a nonlinear regression analysis with GraphPad Prism software version 10.0.0 for Windows, GraphPad Software, Boston, Massachusetts USA. Each compound was tested in ≥3 experiments in quadruplicate rows.

[11] = test system: T. gondii tachyzoites expressing TgPKG T761Q; test: Proliferation EC50, host fibroblast nuclei count, TgPKG T761Q mutant; assay type: cell-based; conditions: for EC50: Toxoplasma gondii, Fibroblast
Description: as §4, §5, §6

[12] = test system: T. gondii tachyzoites expressing TgCDPK1 G128M; test: Proliferation EC50, host fibroblast nuclei count, TgCDPK1 G128M mutant; assay type: cell-based
Description: as §4, §5, §6

[13] = target: T6, PfCDPK1 (Plasmodium falciparum, UniProt P62344); test: CDPK enzyme activity assay, PfCDPK1; assay type: biochemical, P. falciparum; conditions: recombinant enzyme; mean ± SD, n = 2–3 experiments; read-out: enzyme IC50 (±SD) PfCDPK1 WT
T6 construct: made in house
Description: as §3

[14] = target: T7, TgCDPK1-G128M (Toxoplasma gondii, UniProt Q9BJF5, G128M); test: CDPK enzyme activity assay, TgCDPK1 G128M; assay type: biochemical, T. gondii
T7 construct: made in house
Description: as §3

[15] = test system: T. gondii tachyzoites, parental control; test: Proliferation EC50, host fibroblast nuclei count, parental control; assay type: cell-based; conditions: Toxoplasma gondii
Description: as §4, §5, §6

[16] = test system: P. falciparum 3D7 (WT) asexual stage parasites; test: Growth inhibition assay, asexual stage parasites, WT 3D7; assay type: cell-based; conditions: Plasmodium falciparum; 3D7 asexual stage parasites, 72 h; mean ± SD, n = 1–2
Description: as §2

[17] = test system: strain UGA1 expressing nanoluciferase, replication in HCT-8 cells; test: Growth inhibition assay in HCT-8 cells (nanoluciferase strain UGA1); assay type: cell-based, C. parvum; conditions: Cryptosporidium parvum, 48 h, nanoluciferase readout, (±SD), read-out: EC50 of replication measured in HCT-8 cells
Description: strain UGA1 transfected to express nanoluciferase (Nluc) and obtained from the University of Arizona after propagation in newborn calves. HCT-8 cells were added to a 384-well plate and allowed to grow for 48 h to reach 75–90% confluence. The medium was removed, and test compounds were added in serial dilutions prior to the addition of 1000 oocysts per well in RPMI 1640 medium supplemented with 10% heat inactivated FBS and 1% penicillin streptomycin. Plates were incubated for 48 h; Nano-Glo luciferase reagent (Promega, Madison, WI) was then added, and the plates were read on an EnVision multilabel plate reader (PerkinElmer, Waltham, MA). EC50 curves were calculated as previously described using Prism v6.07 (GraphPad Software, La Jolla, CA).

[18] = target: T1, PfPKG; set-up: method as in number not shown in text; conditions: enantiomer comparison; recently reported by the authors, ref number not shown in text; cited from earlier work

T1 sequence (Q8I719 whole entry): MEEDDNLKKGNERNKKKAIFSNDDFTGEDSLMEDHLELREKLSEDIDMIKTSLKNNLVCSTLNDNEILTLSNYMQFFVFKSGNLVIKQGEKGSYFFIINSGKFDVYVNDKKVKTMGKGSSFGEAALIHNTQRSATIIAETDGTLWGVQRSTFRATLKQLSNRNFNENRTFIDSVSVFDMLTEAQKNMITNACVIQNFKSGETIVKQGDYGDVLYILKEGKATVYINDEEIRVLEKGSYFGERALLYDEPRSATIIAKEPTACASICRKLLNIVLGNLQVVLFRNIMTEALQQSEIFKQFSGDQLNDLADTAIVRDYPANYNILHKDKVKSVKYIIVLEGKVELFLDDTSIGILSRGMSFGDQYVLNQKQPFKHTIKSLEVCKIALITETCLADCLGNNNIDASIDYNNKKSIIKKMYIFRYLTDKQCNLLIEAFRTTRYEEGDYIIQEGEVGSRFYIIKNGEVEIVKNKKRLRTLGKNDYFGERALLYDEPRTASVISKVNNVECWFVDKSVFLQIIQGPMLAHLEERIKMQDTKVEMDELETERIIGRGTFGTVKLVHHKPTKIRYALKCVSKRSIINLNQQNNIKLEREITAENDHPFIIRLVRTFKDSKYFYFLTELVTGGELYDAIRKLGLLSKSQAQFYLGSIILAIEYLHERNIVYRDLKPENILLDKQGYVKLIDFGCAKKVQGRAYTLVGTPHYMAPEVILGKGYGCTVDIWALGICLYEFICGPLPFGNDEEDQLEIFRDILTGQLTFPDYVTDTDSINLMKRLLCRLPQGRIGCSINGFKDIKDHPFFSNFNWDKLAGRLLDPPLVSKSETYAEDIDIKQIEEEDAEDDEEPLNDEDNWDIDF
T2 sequence (A3FQ16 whole entry G152M): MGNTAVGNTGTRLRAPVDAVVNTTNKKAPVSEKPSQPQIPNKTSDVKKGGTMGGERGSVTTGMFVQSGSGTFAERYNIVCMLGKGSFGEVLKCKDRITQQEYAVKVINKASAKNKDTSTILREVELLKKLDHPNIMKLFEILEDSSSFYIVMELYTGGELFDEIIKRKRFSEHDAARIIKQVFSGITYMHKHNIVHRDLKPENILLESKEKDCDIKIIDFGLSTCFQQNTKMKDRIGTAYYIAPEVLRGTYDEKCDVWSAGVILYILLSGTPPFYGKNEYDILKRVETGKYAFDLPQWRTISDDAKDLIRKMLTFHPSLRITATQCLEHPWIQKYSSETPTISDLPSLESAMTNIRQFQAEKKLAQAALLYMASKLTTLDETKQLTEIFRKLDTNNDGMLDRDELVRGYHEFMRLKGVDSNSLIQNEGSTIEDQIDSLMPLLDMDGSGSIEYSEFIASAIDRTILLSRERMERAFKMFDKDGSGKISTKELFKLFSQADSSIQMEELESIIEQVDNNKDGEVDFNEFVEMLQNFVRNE
T7 sequence (Q9BJF5 whole entry G128M): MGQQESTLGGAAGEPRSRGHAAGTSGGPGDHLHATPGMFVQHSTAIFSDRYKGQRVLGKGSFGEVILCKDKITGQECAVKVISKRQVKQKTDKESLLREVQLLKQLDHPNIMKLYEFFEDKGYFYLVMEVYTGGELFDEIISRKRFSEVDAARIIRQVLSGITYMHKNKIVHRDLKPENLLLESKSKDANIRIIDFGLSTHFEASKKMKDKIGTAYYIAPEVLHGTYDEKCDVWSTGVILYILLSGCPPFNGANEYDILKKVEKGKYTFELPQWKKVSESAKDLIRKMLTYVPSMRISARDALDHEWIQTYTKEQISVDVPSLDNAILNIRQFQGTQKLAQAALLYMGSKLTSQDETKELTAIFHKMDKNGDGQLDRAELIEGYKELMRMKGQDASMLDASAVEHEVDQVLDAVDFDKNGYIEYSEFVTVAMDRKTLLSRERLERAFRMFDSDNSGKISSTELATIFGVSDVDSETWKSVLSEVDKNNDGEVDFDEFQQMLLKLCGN
T5 sequence (Q8IBS5 whole entry): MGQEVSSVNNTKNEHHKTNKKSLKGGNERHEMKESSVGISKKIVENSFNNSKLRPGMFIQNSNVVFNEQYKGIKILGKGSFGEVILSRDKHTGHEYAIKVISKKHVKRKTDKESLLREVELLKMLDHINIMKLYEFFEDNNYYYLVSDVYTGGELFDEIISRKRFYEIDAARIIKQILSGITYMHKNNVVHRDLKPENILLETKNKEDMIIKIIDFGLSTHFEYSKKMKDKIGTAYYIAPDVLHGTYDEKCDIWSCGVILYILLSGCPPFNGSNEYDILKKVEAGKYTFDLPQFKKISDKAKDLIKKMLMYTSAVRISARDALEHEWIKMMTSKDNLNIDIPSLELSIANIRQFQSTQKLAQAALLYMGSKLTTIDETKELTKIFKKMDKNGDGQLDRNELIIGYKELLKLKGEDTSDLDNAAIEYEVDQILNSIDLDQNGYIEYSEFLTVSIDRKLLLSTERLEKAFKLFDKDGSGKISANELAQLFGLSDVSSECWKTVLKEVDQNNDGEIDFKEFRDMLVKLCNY
T6 sequence (P62344 whole entry): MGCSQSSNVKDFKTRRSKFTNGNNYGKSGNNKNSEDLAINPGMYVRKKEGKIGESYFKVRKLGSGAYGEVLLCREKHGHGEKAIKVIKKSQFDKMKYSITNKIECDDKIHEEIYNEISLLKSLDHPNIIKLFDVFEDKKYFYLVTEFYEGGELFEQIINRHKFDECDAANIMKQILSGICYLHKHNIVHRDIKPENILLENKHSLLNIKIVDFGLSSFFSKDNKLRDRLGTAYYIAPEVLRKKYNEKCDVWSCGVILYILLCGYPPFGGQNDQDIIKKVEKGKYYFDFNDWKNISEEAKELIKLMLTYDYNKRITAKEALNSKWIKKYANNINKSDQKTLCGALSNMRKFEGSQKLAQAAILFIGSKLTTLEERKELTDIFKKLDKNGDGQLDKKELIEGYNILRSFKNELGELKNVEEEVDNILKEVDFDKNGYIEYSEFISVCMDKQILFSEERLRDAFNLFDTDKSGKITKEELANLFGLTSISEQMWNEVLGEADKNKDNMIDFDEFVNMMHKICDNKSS
Chain of PfPKG T618Q (Q8I719 whole entry T618Q): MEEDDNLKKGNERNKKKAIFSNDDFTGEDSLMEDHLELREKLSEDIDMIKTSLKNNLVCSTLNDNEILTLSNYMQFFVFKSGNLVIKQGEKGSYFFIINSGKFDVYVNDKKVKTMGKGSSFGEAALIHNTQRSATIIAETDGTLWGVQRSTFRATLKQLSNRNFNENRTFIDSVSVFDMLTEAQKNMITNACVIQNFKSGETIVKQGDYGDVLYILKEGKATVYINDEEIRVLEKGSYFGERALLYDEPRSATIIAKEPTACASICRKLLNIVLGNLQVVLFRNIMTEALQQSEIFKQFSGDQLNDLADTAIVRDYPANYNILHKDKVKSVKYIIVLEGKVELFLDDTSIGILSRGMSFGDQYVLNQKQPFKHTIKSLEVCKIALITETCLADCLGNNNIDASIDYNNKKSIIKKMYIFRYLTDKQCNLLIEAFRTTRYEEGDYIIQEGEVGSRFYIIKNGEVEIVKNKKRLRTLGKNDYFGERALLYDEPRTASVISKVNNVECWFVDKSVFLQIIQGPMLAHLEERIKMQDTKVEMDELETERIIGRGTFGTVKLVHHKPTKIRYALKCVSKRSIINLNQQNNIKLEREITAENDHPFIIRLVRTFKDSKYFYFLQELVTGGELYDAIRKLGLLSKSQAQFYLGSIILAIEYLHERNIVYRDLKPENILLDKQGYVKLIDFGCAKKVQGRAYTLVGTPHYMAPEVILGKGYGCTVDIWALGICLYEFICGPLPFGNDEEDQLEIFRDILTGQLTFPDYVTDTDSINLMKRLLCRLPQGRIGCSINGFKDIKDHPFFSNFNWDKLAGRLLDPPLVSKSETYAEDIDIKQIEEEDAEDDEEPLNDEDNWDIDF
T4 sequence (A3FQ16 1-538): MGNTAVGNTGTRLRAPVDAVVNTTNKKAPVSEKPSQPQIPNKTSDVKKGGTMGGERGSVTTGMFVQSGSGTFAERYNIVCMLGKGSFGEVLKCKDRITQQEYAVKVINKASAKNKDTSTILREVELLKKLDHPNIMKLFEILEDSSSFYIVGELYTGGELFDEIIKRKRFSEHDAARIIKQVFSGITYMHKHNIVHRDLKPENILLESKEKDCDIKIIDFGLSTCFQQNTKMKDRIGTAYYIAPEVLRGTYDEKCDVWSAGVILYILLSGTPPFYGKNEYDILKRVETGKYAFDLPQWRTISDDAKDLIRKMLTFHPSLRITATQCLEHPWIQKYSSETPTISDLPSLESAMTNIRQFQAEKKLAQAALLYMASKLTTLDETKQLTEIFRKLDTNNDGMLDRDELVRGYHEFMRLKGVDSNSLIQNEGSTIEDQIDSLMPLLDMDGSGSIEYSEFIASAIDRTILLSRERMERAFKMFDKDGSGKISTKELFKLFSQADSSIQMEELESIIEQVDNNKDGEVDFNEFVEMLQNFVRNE

O=C(c1nccs1)N1CC[C@@H](Nc2nccc(-n3cc(C4CC4)nc3-c3cccc(Cl)c3)n2)C1 [(R)-RY-1-185]
IC50 [1]: > 10000 nM
EC50 [2]: 10100 nM
EC50 [3]: 120 nM
IC50 [4]: 190 nM
IC50 [5]: > 30000 nM
CpCDPK1 G152M mutant enzyme less sensitive ([5]; G152M versus WT enzyme): ≥ 300 ×
IC50 [6]: 60 nM
IC50 [7]: 90 nM
increase in EC50 against TgMAPKL-1 L162Q parasites versus parental strain [8]: approximately 2.75 fold
EC50 ([8]; Toxoplasma gondii, 72 h, read-out: T. gondii EC50 (±SD) MAPKL1 L162Q): 330 nM
IC50 [9]: 2210 nM
increase in EC50 against double mutant TgCDPK1 G128M; TgMAPKL-1 L162Q versus parental control [10]: 9 fold
EC50 ([10]; Toxoplasma gondii, Fibroblast, read-out: T. gondii EC50 (±SD) CDPK1 G128M, MAPKL1 L162Q): 1210 nM
EC50 ([11]; read-out: T. gondii EC50 (±SD) PKGT761Q): 170 nM
EC50 ([11]; read-out: average EC50 against the T761Q mutants): 161 nM
increase in EC50, T761Q mutants versus parental ([11]; average): 1.7 fold
EC50 for G128M parasites higher compared to the parental strain ([12]; TgCDPK1 G128M versus parental): 1.8 fold
EC50 ([12]; Toxoplasma gondii, Fibroblast, read-out: T. gondii EC50 (±SD) CDPK1 G128M): 300 nM
IC50 [13]: 6690 nM
IC50 [14]: > 30000 nM
TgCDPK1 G128M mutant enzyme less sensitive ([14]; G128M versus WT enzyme): ≥ 600 fold
EC50 ([15]; read-out: T. gondii EC50 (±SD) CONTROL, tachyzoites, parental control of CDPK1 G128M, mean ± SD, n = 3–5): 150 nM
EC50 ([15]; read-out: T. gondii EC50 (±SD) CONTROL, tachyzoites, parental control of PKG T761Q, mean ± SD, n = 3–5): 100 nM
EC50 ([15]; read-out: T. gondii EC50 (±SD) CONTROL, tachyzoites, parental control of the double mutant, mean ± SD, n = 3–5): 120 nM
EC50 ([15]; read-out: average EC50 against parental parasites, parental of TgPKG T761Q): 94 nM
EC50 [16]: 6500 nM
EC50 [17]: 10800 nM

O=C(c1nccs1)N1CC[C@H](Nc2nccc(-n3cc(C4CC4)nc3-c3ccccc3)n2)C1 [(S)-RY-1-165]
PfPKG inhibition (in words) [18]: inactive

From PMC12333026, “Versatile Imidazole Scaffold with Potent Activity against Multiple Apicomplexan Parasites” (ACS Infectious Diseases, 2025)
